According to patent US10472358B2, “1H-pyrrolo[2,3-c]pyridin-7(6H)-ones and pyrazolo[3,4-c]pyridin-7(6H)-ones as inhibitors of BET proteins” (Incyte Corporation, priority 2014, dated 2019):

The compounds below were run on KMS.12.BM cells (assay: KMS.12.BM cell viability assay (Cell Titer-GLO, ATP quantitation)). Settings: KMS-12-BM, 72 h; human myeloma cells, 3 days, concentration required for 50% cell death.
Assay type: cell-based
Procedure: Example B1: KMS.12.BM Cell Viability Assay
KMS.12.BM cell line (human myeloma) was purchased from JCRB (Osaka, Japan) and maintained in RPMI with 10% FBS culture medium. To measure the cytotoxic activity of the compounds through ATP quantitation, the KMS.12.BM cells are plated in the RPMI culture medium at 5000 cells/well/per 100 μL into a 96-well polystyrene clear black tissue culture plate (Greiner-bio-one through VWR, NJ), in the presence or absence of a concentration range of test compounds. After 3 days, […] Cell Titer-GLO Luminescent (Promega, Madison, Wis.) cell culture agent is added to each well for 10 minutes at room temperature to stabilize the luminescent signal. This determines the number of viable cells in culture based on quantitation of the ATP present, which signals the presence of metabolically active cells. Luminescence is measured with the Top Count 384 (Packard Bioscience through Perkin Elmer, Boston, Mass.). Compound inhibition is determined relative to cells cultured with no drug and the IC50 is reported as the compound concentration required for 50% cell death.
For `CCN1C(=O)C(C(C)C)Oc2c(-c3cn(C)c(=O)c4[nH]ccc34)cc(S(C)(=O)=O)cc21` (stereo not shown) [Example 54, 4-ethyl-2-isopropyl-8-(6-methyl-7-oxo-6,7-dihydro-1H-pyrrolo[2,3-c]pyridin-4-yl)-6-(methylsulfonyl)-2H-1,4-benzoxazin-3(4H)-one], the IC50 was ≤ 1 µM.
With `CCS(=O)(=O)c1cc(-c2cn(C)c(=O)c3[nH]ccc23)c2c(c1)N(C)C(=O)C(C(C)C)O2` (stereo not shown) [Example 55, 6-(ethylsulfonyl)-2-isopropyl-4-methyl-8-(6-methyl-7-oxo-6,7-dihydro-1H-pyrrolo[2,3-c]pyridin-4-yl)-2H-1,4-benzoxazin-3(4H)-one] the IC50 was ≤ 1 µM.
In the case of `CC(C)C1Oc2c(-c3cn(C)c(=O)c4[nH]ccc34)cc(S(=O)(=O)C(C)C)cc2N(C)C1=O` (stereo not shown) [Example 56, 2-isopropyl-6-(isopropylsulfonyl)-4-methyl-8-(6-methyl-7-oxo-6,7-dihydro-1H-pyrrolo[2,3-c]pyridin-4-yl)-2H-1,4-benzoxazin-3(4H)-one], the IC50 is reported as ≤ 1 µM.
For `Cn1cc(-c2cc(S(C)(=O)=O)cc3c2OC2(CC2)C(=O)N3)c2cc[nH]c2c1=O` [Example 57, 8-(6-methyl-7-oxo-6,7-dihydro-1H-pyrrolo[2,3-c]pyridin-4-yl)-6-(methylsulfonyl)spiro[1,4-benzoxazine-2,1′-cyclopropan]-3(4H)-one], the IC50 was ≤ 1 µM.
With `Cn1cc(-c2cc(S(C)(=O)=O)cc3c2NC(C)(C)C(=O)N3)c2cc[nH]c2c1=O` [Example 58, 3,3-dimethyl-5-(6-methyl-7-oxo-6,7-dihydro-1H-pyrrolo[2,3-c]pyridin-4-yl)-7-(methylsulfonyl)-3,4-dihydroquinoxalin-2(1H)-one] the IC50 was ≤ 1 µM.
For `Cn1cc(-c2cc(S(C)(=O)=O)cc3c2NC2(CCCC2)C(=O)N3)c2cc[nH]c2c1=O` [Example 59, 8′-(6-methyl-7-oxo-6,7-dihydro-1H-pyrrolo[2,3-c]pyridin-4-yl)-6′-(methylsulfonyl)-1′,4′-dihydro-3′H-spiro[cyclopentane-1,2′-quinoxalin]-3′-one], the IC50 was ≤ 1 µM.
`CC(C)[C@@H]1Nc2c(cc(S(C)(=O)=O)cc2-c2cn(C)c(=O)c3[nH]ccc23)NC1=O` [Example 60, (3S)-3-isopropyl-5-(6-methyl-7-oxo-6,7-dihydro-1H-pyrrolo[2,3-c]pyridin-4-yl)-7-(methylsulfonyl)-3,4-dihydroquinoxalin-2(1H)-one] was tested, and the IC50 was ≤ 1 µM.
`CC(C)[C@H]1Nc2c(cc(S(C)(=O)=O)cc2-c2cn(C)c(=O)c3[nH]ccc23)NC1=O` [Example 61, (3R)-3-isopropyl-5-(6-methyl-7-oxo-6,7-dihydro-1H-pyrrolo[2,3-c]pyridin-4-yl)-7-(methylsulfonyl)-3,4-dihydroquinoxalin-2(1H)-one] was tested, and the IC50 was ≤ 1 µM.
`Cn1cc(-c2cc(S(C)(=O)=O)cc3c2NC2(CCC2)C(=O)N3)c2cc[nH]c2c1=O` [Example 62, 8′-(6-methyl-7-oxo-6,7-dihydro-1H-pyrrolo[2,3-c]pyridin-4-yl)-6′-(methylsulfonyl)-1′,4′-dihydro-3′H-spiro[cyclobutane-1,2′-quinoxalin]-3′-one] was tested, and the IC50 was ≤ 1 µM.
In the case of `CN1C(=O)C2(CC2)Oc2c(-c3cn(C)c(=O)c4[nH]ccc34)cc(S(C)(=O)=O)cc21` [Example 63, 4-methyl-8-(6-methyl-7-oxo-6,7-dihydro-1H-pyrrolo[2,3-c]pyridin-4-yl)-6-(methylsulfonyl)spiro[1,4-benzoxazine-2,1′-cyclopropan]-3(4H)-one], the IC50 is reported as ≤ 1 µM.
With `Cn1cc(-c2cc(S(C)(=O)=O)cc3c2NC2(CCCCC2)C(=O)N3)c2cc[nH]c2c1=O` [Example 64, 8′-(6-methyl-7-oxo-6,7-dihydro-1H-pyrrolo[2,3-c]pyridin-4-yl)-6′-(methylsulfonyl)-1′,4′-dihydro-3′H-spiro[cyclohexane-1,2′-quinoxalin]-3′-one] the IC50 was ≤ 1 µM.
With `Cn1cc(-c2cc(S(C)(=O)=O)cc3c2OC2(CC2)C(=O)N3)c2cn[nH]c2c1=O` [Example 65, 8-(6-methyl-7-oxo-6,7-dihydro-1H-pyrazolo[3,4-c]pyridin-4-yl)-6-(methylsulfonyl)spiro[1,4-benzoxazine-2,1′-cyclopropan]-3(4H)-one] the IC50 was ≤ 1 µM.
With `CN1C(=O)C2(CC2)Oc2c(-c3cn(C)c(=O)c4[nH]ncc34)cc(S(C)(=O)=O)cc21` [Example 66, 4-methyl-8-(6-methyl-7-oxo-6,7-dihydro-1H-pyrazolo[3,4-c]pyridin-4-yl)-6-(methylsulfonyl)spiro[1,4-benzoxazine-2,1′-cyclopropan]-3(4H)-one] the IC50 was ≤ 1 µM.
In the case of `CC(C)C1Oc2c(cc(S(=O)(=O)N(C)C)cc2-c2cn(C)c(=O)c3[nH]ccc23)NC1=O` (stereo not shown) [Example 67, 2-isopropyl-N,N-dimethyl-8-(6-methyl-7-oxo-6,7-dihydro-1H-pyrrolo[2,3-c]pyridin-4-yl)-3-oxo-3,4-dihydro-2H-1,4-benzoxazine-6-sulfonamide], the IC50 is reported as ≤ 1 µM.
In the case of `CNS(=O)(=O)c1cc2c(c(-c3cn(C)c(=O)c4[nH]ccc34)c1)OC(C(C)C)C(=O)N2` (stereo not shown) [Example 68, 2-isopropyl-N-methyl-8-(6-methyl-7-oxo-6,7-dihydro-1H-pyrrolo[2,3-c]pyridin-4-yl)-3-oxo-3,4-dihydro-2H-1,4-benzoxazine-6-sulfonamide], the IC50 is reported as ≤ 1 µM.
In the case of `CN1C(=O)C(C)(C)Oc2c(-c3cn(C)c(=O)c4[nH]ccc34)cc(S(=O)(=O)N(C)C)cc21` [Example 69, N,N,2,2,4-pentamethyl-8-(6-methyl-7-oxo-6,7-dihydro-1H-pyrrolo[2,3-c]pyridin-4-yl)-3-oxo-3,4-dihydro-2H-1,4-benzoxazine-6-sulfonamide], the IC50 is reported as ≤ 1 µM.
`CN(C)S(=O)(=O)c1cc2c(c(-c3cn(C)c(=O)c4[nH]ccc34)c1)OC(C)(C)C(=O)N2` [Example 70, N,N,2,2-tetramethyl-8-(6-methyl-7-oxo-6,7-dihydro-1H-pyrrolo[2,3-c]pyridin-4-yl)-3-oxo-3,4-dihydro-2H-1,4-benzoxazine-6-sulfonamide] was tested, and the IC50 was ≤ 1 µM.
For `CC(C)C1Oc2c(-c3cn(C)c(=O)c4[nH]ccc34)cc(S(=O)(=O)N(C)C)cc2N(C)C1=O` (stereo not shown) [Example 71, 2-isopropyl-N,N,4-trimethyl-8-(6-methyl-7-oxo-6,7-dihydro-1H-pyrrolo[2,3-c]pyridin-4-yl)-3-oxo-3,4-dihydro-2H-1,4-benzoxazine-6-sulfonamide], the IC50 was ≤ 1 µM.
With `Cn1cc(-c2cc(S(=O)(=O)N3CCCCC3)cc3c2OC(C)(C)C(=O)N3)c2cc[nH]c2c1=O` [Example 72, 2,2-dimethyl-8-(6-methyl-7-oxo-6,7-dihydro-1H-pyrrolo[2,3-c]pyridin-4-yl)-6-(piperidin-1-ylsulfonyl)-2H-1,4-benzoxazin-3(4H)-one] the IC50 was ≤ 1 µM.
`CN1C(=O)C(C)(C)Oc2c(-c3cn(C)c(=O)c4[nH]ccc34)cc(S(=O)(=O)N3CCCCC3)cc21` [Example 73, 2,2,4-trimethyl-8-(6-methyl-7-oxo-6,7-dihydro-1H-pyrrolo[2,3-c]pyridin-4-yl)-6-(piperidin-1-ylsulfonyl)-2H-1,4-benzoxazin-3(4H)-one] was tested, and the IC50 was ≤ 1 µM.
`CC(C)NS(=O)(=O)c1cc2c(c(-c3cn(C)c(=O)c4[nH]ccc34)c1)OC(C)(C)C(=O)N2` [Example 74, N-isopropyl-2,2-dimethyl-8-(6-methyl-7-oxo-6,7-dihydro-1H-pyrrolo[2,3-c]pyridin-4-yl)-3-oxo-3,4-dihydro-2H-1,4-benzoxazine-6-sulfonamide] was tested, and the IC50 was ≤ 1 µM.
`CN1C(=O)C(C)(C)Oc2c(-c3cn(C)c(=O)c4[nH]ccc34)cc(S(C)(=O)=O)cc21` [Example 75, 2,2,4-trimethyl-8-(6-methyl-7-oxo-6,7-dihydro-1H-pyrrolo[2,3-c]pyridin-4-yl)-6-(methylsulfonyl)-2H-1,4-benzoxazin-3(4H)-one] was tested, and the IC50 was ≤ 1 µM.
With `CCS(=O)(=O)c1cc(-c2cn(C)c(=O)c3[nH]ccc23)c2c(c1)N(C)C(=O)C(C)(C)O2` [Example 76, 6-(ethylsulfonyl)-2,2,4-trimethyl-8-(6-methyl-7-oxo-6,7-dihydro-1H-pyrrolo[2,3-c]pyridin-4-yl)-2H-1,4-benzoxazin-3(4H)-one] the IC50 was ≤ 1 µM.
For `CC(C)S(=O)(=O)c1cc(-c2cn(C)c(=O)c3[nH]ccc23)c2c(c1)N(C)C(=O)C(C)(C)O2` [Example 77, 6-(isopropylsulfonyl)-2,2,4-trimethyl-8-(6-methyl-7-oxo-6,7-dihydro-1H-pyrrolo[2,3-c]pyridin-4-yl)-2H-1,4-benzoxazin-3(4H)-one], the IC50 was ≤ 1 µM.
`CCS(=O)(=O)c1cc2c(c(-c3cn(C)c(=O)c4[nH]ccc34)c1)OC(C)(C)C(=O)N2` [Example 78, 6-(ethylsulfonyl)-2,2-dimethyl-8-(6-methyl-7-oxo-6,7-dihydro-1H-pyrrolo[2,3-c]pyridin-4-yl)-2H-1,4-benzoxazin-3(4H)-one] was tested, and the IC50 was ≤ 1 µM.
With `CC(C)S(=O)(=O)c1cc2c(c(-c3cn(C)c(=O)c4[nH]ccc34)c1)OC(C)(C)C(=O)N2` [Example 79, 6-(isopropylsulfonyl)-2,2-dimethyl-8-(6-methyl-7-oxo-6,7-dihydro-1H-pyrrolo[2,3-c]pyridin-4-yl)-2H-1,4-benzoxazin-3(4H)-one] the IC50 was ≤ 1 µM.
`CC(O)c1cc2c(c(-c3cn(C)c(=O)c4[nH]ccc34)c1)OC(C)(C)C(=O)N2` (stereo not shown) [Example 81, 6-(1-hydroxyethyl)-2,2-dimethyl-8-(6-methyl-7-oxo-6,7-dihydro-1H-pyrrolo[2,3-c]pyridin-4-yl)-2H-1,4-benzoxazin-3(4H)-one] was tested, and the IC50 was ≤ 1 µM.
For `CC(O)c1cc(-c2cn(C)c(=O)c3[nH]ccc23)c2c(c1)N(C)C(=O)C(C)(C)O2` (stereo not shown) [Example 83, 6-(1-hydroxyethyl)-2,2,4-trimethyl-8-(6-methyl-7-oxo-6,7-dihydro-1H-pyrrolo[2,3-c]pyridin-4-yl)-2H-1,4-benzoxazin-3(4H)-one], the IC50 was ≤ 1 µM.
